Laboratory results: patent publication US20100041689A1, “Combined Effects of Topiramate and Ondansetron on Alcohol Consumption” (UNIVERSITY OF VIRGINIA PATENT FOUNDATION, priority 2006, published 2010)

What was measured:
[1] = system: alcohol-preferring (P) rats; test: Ethanol consumption, 24-hour-access two-bottle choice (10% ethanol vs. water), P rats; type: in vivo, rat; conditions: for decrease from baseline in alcohol consumption: Example 1, topiramate 10 mg/kg IP, ondansetron 0.001 mg/kg IP, test session, mean±SE of 17 rats; for decrease from baseline in alcohol consumption / preference for ethanol over water, average on test sessions / preference for ethanol over water, baseline change: P rats; for ethanol consumption vs baseline: Example 4, P rats N=18, topiramate 10 mg/kg, ondansetron 0.001 mg/kg, FIG. 4A; for preference for ethanol over water, average on test sessions: baseline average preference 0.6±0.2; for preference for ethanol over water, baseline change: test sessions
Experimental: Combined effect of topiramate (10 mg/kg, IP) and ondansetron (0.001 mg/kg, IP) on alcohol consumption in alcohol-preferring (P) rats. […] Data were plotted across 7 consecutive sessions, which include a 3-day baseline period, the test session in which the ondansetron and/or topiramate injection was administered, and the 3 sessions that followed the test session. […]
(§1) The effects of ondansetron and topiramate were examined for their ability to modulate two important aspects of alcohol abuse: total consumption and relapse. Total consumption was examined under a 24-hour-access two-bottle choice procedure wherein rats had unlimited access to alcohol solutions (10%) and water. Alcohol relapse was assessed in alcohol-dependent rats by examining alcohol consumption following an extended abstinence period. Specifically, in alcohol-dependent rats, when alcohol is reintroduced following an extended abstinence period, rats show marked increases in consumption as compared with levels of consumption prior to abstinence.
(§2) 1) The combination of topiramate and ondansetron reduces ethanol consumption in rats: Total consumption was examined under a 24-hour-access two-bottle choice procedure (10% ethanol vs. water). To induce drinking, both Wistar and P rats were trained onto ethanol using a standard sucrose fading procedure. […] At baseline, the average preference was 0.6±0.2, and the average values observed on test sessions with topiramate alone, ondansetron alone, the combination of topiramate and ondansetron, and vehicle were 0.51±0.2 (−9±4% baseline change), 0.58±0.0 (1±2%), 0.51±0.03 (−11±4%), and 0.59±0.03 (1%±0), respectively. […] At baseline, the average preference ratio was 0.30±0.03 and the average values observed on test sessions with topiramate alone, ondansetron alone, the combination of topiramate and ondansetron, and vehicle were 0.25±0.03 (−6±7% baseline change), 0.26±0.04 (2±2%), 0.31±0.02 (1±3%; P<0.05), and 0.3±0.03 (6%±4), respectively.

[2] = system: alcohol-preferring (P) rats; test: Alcohol deprivation effect (ADE, relapse model), P rats; type: in vivo, rat; conditions: for alcohol deprivation effect (ADE), consumption 24 hours after ethanol reinstated: Example 4, chronic daily treatment from day 8 of 15-day withdrawal, topiramate 10 mg/kg, ondansetron 0.001 mg/kg, FIG. 5A
Experimental: as §1

[3] = system: Wistar rats; test: Ethanol consumption, 24-hour-access two-bottle choice, Wistar rats; type: in vivo, rat; conditions: for alcohol consumption, change from baseline: Example 3, ondansetron 0.001 or 0.01 mg/kg with topiramate 10 mg/kg IP, 4 to 5 rats, FIG. 3; for alcohol consumption, change from baseline / preference ratio for ethanol over water, average on test sessions / preference for ethanol over water, baseline change: Wistar rats; for ethanol consumption: Example 4, Wistar rats n=5, preliminary, FIG. 4B; for preference ratio for ethanol over water, average on test sessions: baseline average 0.30±0.03; for preference for ethanol over water, baseline change: test sessions
Experimental: Combined effect of topiramate (5 and 10 mg/kg, IP) and ondansetron (0.001 and 0.01 mg/kg, IP) on alcohol consumption in Wistar rats. […] The experiments utilized four to five rats per condition. Data are expressed as change from baseline levels of alcohol consumption.
as §1, §2

[4] = system: early-onset alcoholics; conditions: ondansetron in early-onset alcoholics
[5] = system: early-onset alcoholics; conditions: cited from earlier work
[6] = system: alcohol-dependent subjects; test: Topiramate alone in alcohol dependence (comparison data from a different study); type: in vivo, human
[7] = system: alcohol-dependent subjects; conditions: topiramate alone, cited from earlier work

Row | SMILES | decrease from baseline in alcohol consumption [1] | ethanol consumption vs baseline [1] | preference for ethanol over water, average on test sessions [1] | preference for ethanol over water, baseline change [1] [%] | alcohol deprivation effect (ADE), consumption 24 hours after ethanol reinstated [2] | alcohol consumption, change from baseline [3] | ethanol consumption [3] | preference ratio for ethanol over water, average on test sessions [3] | preference for ethanol over water, baseline change [3] [%] | further results
1 | Cc1nccn1CC1CCc2c(c3ccccc3n2C)C1=O (stereo not drawn) [Ondansetron, 9-methyl-3-[(2-methyl-1H-imidazol-1-yl)methyl]-1,2,3,9-tetrahydrocarbazol-4-one] | 1%±7% | did not impact ethanol consumption on its own | 0.58±0.0 | 1±2 | blocked the ADE | lack of modulation | no affect was observed on consumption | 0.26±0.04 | 2±2 | Cohen's effect size: drinks per day [4]: −0.55; Cohen's effect size: drinks per drinking day [4]: −0.48; Cohen's effect size: percentage of days abstinent [4]: +0.27; report of weight loss ([5]; individuals taking ondansetron alone): no appreciable report of weight loss; paresthesia ([5]; ondansetron administered alone): not associated with paresthesia; mean reduction in drinks per day ([5]; ondansetron alone in early-onset alcoholics): −3.28 drinks per day
2 | CC1(C)O[C@@H]2[C@@H](CO[C@@]3(COS(N)(=O)=O)OC(C)(C)O[C@@H]23)O1 [Topiramate, 2,3:4,5-Bis-O-(1-methylethylidene)-beta-D-fructopyranose sulfamate] | 13±5% | significant decrease from baseline ethanol consumption | 0.51±0.2 | −9±4 | blocked the ADE | lack of modulation | no affect was observed on consumption | 0.25±0.03 | −6±7 | alcohol consumption following a two-week abstinence period (alcohol deprivation effect) ([2]; Example 2, topiramate 10 mg/kg IP, ondansetron 0.001 mg/kg IP, 2 to 3 rats, FIG. 2): attenuated the alcohol deprivation effect; Cohen's effect size: drinks per day [6]: −0.80; Cohen's effect size: drinks per drinking day [6]: −0.63; Cohen's effect size: percentage of days abstinent [6]: +0.73; adverse event rate: dizziness ([7]; different study): 28%; adverse event rate: paresthesia ([7]; different study): 54%; adverse event rate: slowing in psychomotor performance ([7]; different study): 27%; individuals reporting weight loss [7]: 19.7%; frequency of paresthesia ([7]; share of individuals): over 50%
